Experiment [1] relates to Mus musculus. In words: Average change in weight in mice bearing the B16 Melanoma, when compound (20 mg/kg) was administered beginning 24 hr after tumor implantation, daily once for 6 consecutive days. In kind it is functional.
In experiment [2] the test system is Mus musculus. Nature of the experiment: Average change in weight in mice bearing the L1210 Leukemia, when compound (5 mg/kg) was administered beginning 24 hr after tumor implantation, daily once for 6 consecutive days. In kind it is functional.
In experiment [3] the test system is Mus musculus. In words: The ratio of the survival time of treated to control animals x 100 in mice bearing B16 Melanoma, when compound (15 mg/kg) was administered intraperitoneally. In kind it is functional.
The test system of experiment [4] is Mus musculus. Nature of the experiment: The ratio of the survival time of treated to control animals x 100 in mice bearing L1210 leukemia, when compound (5 mg/kg) was administered intraperitoneally. In kind it is functional.
Experiment [5] relates to L1210. Nature of the experiment: Number L1210 (murine leukemia) inoculated mice surviving for >50 days following 25 mg/kg i.p. In kind it is functional, Mus musculus. To be noted: route intraperitoneal.
Experiment [6] relates to Mus musculus. Nature of the experiment: The ratio of the survival time of treated to control animals x 100 in mice bearing L1210 Leukemia, when compound (15 mg/kg) was administered intraperitoneally. In kind it is functional.
The test system of experiment [7] is Mus musculus. In words: Number of mice survived for a period greater than 50 days when a dose of 20 mg/Kg is administered intraperitoneally; tested in 5 mice. In kind it is functional.
Experiment [8] has as its system Mus musculus. Nature of the experiment: Average change in weight in mice bearing the L1210 Leukemia, when compound(15 mg/kg) was administered beginning 24 h after tumor implantation, daily once for 6 consecutive days. Format: functional.
The test system of experiment [9] is Mus musculus. In words: The ratio of the survival time of treated to control animals x 100 in mice bearing L1210 Leukemia, when compound (10 mg/kg) was administered intraperitoneally. In kind it is functional.
Experiment [10] concerns Mus musculus. In words: The ratio of the survival time of treated to control animals x 100 in mice bearing B16 Melanoma, when compound (20 mg/kg) was administered intraperitoneally. In kind it is functional.
Experiment [11] has as its system Mus musculus. Nature of the experiment: The ratio of the survival time of treated to control animals x 100 in mice bearing B16 Melanoma, when compound (5 mg/kg) was administered intraperitoneally. Format: functional.
The subject of experiment [12] is Mus musculus. Nature of the experiment: Number of mice surviving for a period greater than 50 days when a dose of 30 mg/Kg is administered intraperitoneally; tested in 5 mice. In kind it is functional.
Experiment [13] concerns Mus musculus. Nature of the experiment: Average change in weight in mice bearing the B16 Melanoma, when compound(10 mg/kg) was administered intraperitoneally beginning 24 hr after tumor implantation, daily once for 6 consecutive days. Format: functional.
Experiment [14] concerns Mus musculus. Nature of the experiment: Average change in weight in mice bearing the B16 Melanoma, when compound (15 mg/kg) was administered beginning 24 h after tumor implantation, daily once for 6 consecutive days. In kind it is functional.
For experiment [15], the system named is Mus musculus. In words: Average change in weight in mice bearing the L1210 Leukemia, when compound (10 mg/kg) was administered beginning 24 hr after tumor implantation, daily once for 6 consecutive days. Format: functional.
In experiment [16] the test system is Mus musculus. Nature of the experiment: Number of mice survived for a period of greater than 50 days when a dose of 5 mg/Kg is administered intraperitoneally; tested in 5 mice. In kind it is functional.
The test system of experiment [17] is Mus musculus. In words: Number of mice survived for a period of greater than 50 days when a dose of 10 mg/Kg is administered intraperitoneally; tested in 5 mice. In kind it is functional.
The test system of experiment [18] is Mus musculus. Nature of the experiment: Number of mice survived for a period of greater than 50 days when a dose of 15 mg/Kg is administered intraperitoneally; tested in 5 mice. Format: functional.
Experiment [19] relates to Mus musculus. Nature of the experiment: Average change in weight in mice bearing the L1210 Leukemia, when compound (15 mg/kg) was administered beginning 24 hr after tumor implantation, daily once for 6 consecutive days. Format: functional.
Experiment [20] has as its system L1210. Nature of the experiment: Percentage survival time of L1210 (murine leukemia) inoculated mice following 20 mg/kg i.p. In kind it is functional, Mus musculus. To be noted: route intraperitoneal.
For experiment [21], the system named is Mus musculus. In words: The ratio of the survival time of treated to control animals x 100 in mice bearing B16 Melanoma, when compound (50 mg/kg) was administered intraperitoneally. Format: functional.
Experiment [22] relates to Mus musculus. In words: Average change in weight in mice bearing the B16 Melanoma, when compound(100 mg/kg) was administered beginning 24 hr after tumor implantation, daily once for 6 consecutive days. In kind it is functional.
Experiment [23] relates to L1210. In words: Percentage survival time of L1210 (murine leukemia) inoculated mice following 25 mg/kg i.p. In kind it is functional, Mus musculus. To be noted: route intraperitoneal.
Experiment [24] has as its system Mus musculus. Nature of the experiment: The ratio of the survival time of treated to control animals x 100 in mice bearing B16 Melanoma, when compound (100 mg/kg) was administered intraperitoneally. In kind it is functional.
In experiment [25] the test system is L1210. Nature of the experiment: Percentage survival time of L1210 (murine leukemia) inoculated mice following 30 mg/kg i.p. In kind it is functional, Mus musculus. To be noted: route intraperitoneal.
The subject of experiment [26] is Mus musculus. Nature of the experiment: Average change in weight in mice bearing the L1210 Leukemia, when compound(30 mg/kg) was administered once daily beginning 24 hr after tumor implantation, for 6 consecutive days. Format: functional.
The subject of experiment [27] is Mus musculus. In words: The ratio of the survival time of treated to control animals x 100 in mice bearing B16 Melanoma, when compound (150 mg/kg) was administered intraperitoneally. In kind it is functional.
The subject of experiment [28] is Mus musculus. Nature of the experiment: Number of mice survived for a period of greater than 50 days when a dose of 25 mg/Kg is administered intraperitoneally; tested in 4 mice. In kind it is functional.
The subject of experiment [29] is Mus musculus. In words: Survival of mice bearing B16 melanoma cells greater than 50 days when treated with a dose of 150 mg/Kg administered intraperitoneally; tested in 5 mice. In kind it is functional.
Experiment [30] has as its system Mus musculus. In words: Survival of mice bearing B16 melanoma cells greater than 50 days when treated with a dose of 50 mg/Kg administered intraperitoneally; tested in 5 mice. In kind it is functional.
Experiment [31] relates to Mus musculus. Nature of the experiment: Average change in weight in mice bearing the L1210 Leukemia, when compound (25 mg/kg) was administered once daily beginning 24 hr after tumor implantation, for 6 consecutive days. Format: functional.
In experiment [32] the test system is Mus musculus. Nature of the experiment: Average change in weight in mice bearing the B16 Melanoma, when compound(50 mg/kg) was administered intraperitoneally beginning 24 hr after tumor implantation, daily once for 6 consecutive days. In kind it is functional.
The test system of experiment [33] is Mus musculus. Nature of the experiment: Average change in weight in mice bearing the B16 Melanoma, when compound(150 mg/kg) was administered beginning 24 hr after tumor implantation, daily once for 6 consecutive days. Format: functional.
In experiment [34] the test system is Mus musculus. Nature of the experiment: Average change in weight in mice bearing the L1210 Leukemia, when compound (20 mg/kg) was administered once daily beginning 24 hr after tumor implantation, for 6 consecutive days. In kind it is functional.
Experiment [35] deals with Mus musculus. In words: Survival of mice bearing B16 melanoma cells greater than 50 days when treated with a dose of 100 mg/Kg administered intraperitoneally; tested in 5 mice. In kind it is functional.

Take `CS(=O)(=O)Oc1cccc2c1C(=O)C(N1CC1)=C(N1CC1)C2=O`: the Average weight with Mus musculus [1] is given as -8.1%; with Mus musculus [2], 3.3%; in the experiment on Mus musculus [8], -10%; with Mus musculus [13] it was -3.8%; in the experiment with Mus musculus [14] it was -6.4%; in the experiment on Mus musculus [15] it was -7.1%. Moreover, the Activity in the experiment on Mus musculus [3] is reported as 137; in the experiment on Mus musculus [4] it was 130; in the experiment with Mus musculus [6], 295; in the experiment with Mus musculus [9] it was 185; in the experiment with Mus musculus [10] it was 153; in the experiment with Mus musculus [11], 125. The Survivals was determined as 4 in the experiment with L1210 [5], 0 with Mus musculus [7] and 2 in the experiment with Mus musculus [12].

As for `O=C1C(N2CC2)=C(N2CC2)C(=O)c2c(O)cccc21`, the Average weight is given as 6.3% with Mus musculus [2], -0.8% with Mus musculus [19] and -3.2% with Mus musculus [15]. Moreover, the Activity came to 114 with Mus musculus [4], 104 with Mus musculus [6] and 96 in the experiment on Mus musculus [9]. Further, the Survivals in the experiment on Mus musculus [16], in the experiment with Mus musculus [17] and with Mus musculus [18] was 0 throughout.

As to `COc1ccc(S(=O)(=O)Oc2cccc3c2C(=O)C(N2CC2)=C(N2CC2)C3=O)cc1`, the Activity with L1210 [20] came out at 175; in the experiment with Mus musculus [21], 132; with L1210 [23], 222; with Mus musculus [24], 154; with L1210 [25], 193; in the experiment on Mus musculus [27] it was 165. Further, the “Average change in body weight” value in the experiment with Mus musculus [22] was -12.4%; with Mus musculus [26], -1.3%; with Mus musculus [33] it was -15.2%; with Mus musculus [34] it was -0.1%. Moreover, the Survivals was 0 in the experiment with Mus musculus [7]; 1 in the experiment on Mus musculus [28]; 0 in the experiment with Mus musculus [29]; 0 in the experiment with Mus musculus [30]; 3 with Mus musculus [12]; 0 in the experiment with Mus musculus [35]. Further, the results for the “Average body weight change” value in the experiment with Mus musculus [31] and with Mus musculus [32] were -2.4% and -4.7%, respectively.

For the origin of these results see ChEMBL document CHEMBL1124516, “Synthesis of 2,3-diaziridinyl-1,4-naphthoquinone sulfonate derivatives as potential antineoplastic agents” (1989).
